Reference: US7411069B2 (Hypnion, Inc., priority 2003, dated 2008)

Experiments:
Histamine, H1 = Histamine, H1 (Bos taurus, UniProt P30546); experiment: Binding specificity panel; conditions: 1.0E−6; average N=2
Description: The percentage inhibition (average; N=2) for these receptors is shown below in Table 12.
Values in Table 12 are expressed as percentage inhibition of specific binding, and these values represent the average of replicate tubes at each of the concentrations tested.

male Wistar rats = experiment: SCORE-2000 sleep-wakefulness, locomotor activity and body temperature monitoring
H1 histamine receptor = target: T1, H1 histamine receptor (Bos taurus, UniProt P30546); experiment: H1 binding assay ([3H]pyrilamine displacement); set-up: species or system bovine; conditions: average N=2
T1 construct: the receptors were obtained from bovine cerebellar membrane tissue; from tissue; host or cells: bovine cerebellar membranes
T1 sequence (P30546 whole entry): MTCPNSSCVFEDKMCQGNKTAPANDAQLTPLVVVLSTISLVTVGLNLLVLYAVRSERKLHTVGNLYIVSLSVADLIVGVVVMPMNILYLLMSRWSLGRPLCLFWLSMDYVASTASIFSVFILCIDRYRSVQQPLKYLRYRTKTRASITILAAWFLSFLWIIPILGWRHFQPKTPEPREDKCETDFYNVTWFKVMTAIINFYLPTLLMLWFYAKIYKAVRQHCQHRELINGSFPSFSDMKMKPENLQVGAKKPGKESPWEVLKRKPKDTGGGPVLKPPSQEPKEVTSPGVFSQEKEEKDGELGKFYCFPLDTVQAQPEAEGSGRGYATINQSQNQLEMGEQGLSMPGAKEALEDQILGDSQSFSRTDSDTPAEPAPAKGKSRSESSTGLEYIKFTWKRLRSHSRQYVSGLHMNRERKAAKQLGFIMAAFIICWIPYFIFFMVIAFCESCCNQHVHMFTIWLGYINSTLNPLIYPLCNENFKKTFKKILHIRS

M3 muscarinic receptor = target: T2, M3 muscarinic receptor (Homo sapiens, UniProt P20309); experiment: M3 binding assay ([3H]-scopolamine, N-methyl chloride displacement); conditions: average N=2
T2 construct: purchased PerkinElmer, Inc., Wellesley, Mass; host or cells: CHO cells
T2 sequence (P20309 whole entry): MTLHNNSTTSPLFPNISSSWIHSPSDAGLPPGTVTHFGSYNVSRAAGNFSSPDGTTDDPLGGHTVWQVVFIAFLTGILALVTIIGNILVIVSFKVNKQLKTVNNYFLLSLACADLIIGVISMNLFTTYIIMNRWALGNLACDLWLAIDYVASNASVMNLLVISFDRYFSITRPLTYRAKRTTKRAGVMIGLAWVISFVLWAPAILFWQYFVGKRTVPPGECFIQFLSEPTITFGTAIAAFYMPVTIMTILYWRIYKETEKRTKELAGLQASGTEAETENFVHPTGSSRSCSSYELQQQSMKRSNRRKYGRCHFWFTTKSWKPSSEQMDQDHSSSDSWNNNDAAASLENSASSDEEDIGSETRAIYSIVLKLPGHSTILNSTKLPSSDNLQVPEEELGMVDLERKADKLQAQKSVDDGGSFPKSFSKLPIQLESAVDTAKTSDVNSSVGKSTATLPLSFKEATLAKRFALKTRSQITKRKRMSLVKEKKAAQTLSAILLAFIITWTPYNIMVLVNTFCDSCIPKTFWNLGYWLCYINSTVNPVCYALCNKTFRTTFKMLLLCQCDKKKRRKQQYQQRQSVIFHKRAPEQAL

Histamine, H1, sequence (P30546 whole entry): as the sequence (P30546 whole entry) above

CC(CC(=O)O)N1CCC(=C2c3ccc(F)cc3COc3ccccc32)CC1 (stereo not shown) [Compound 37]
percentage inhibition of specific binding (Histamine, H1): 23.13%
REM inhibition (male Wistar rats; 10 mg/kg): did not produce any
rebound insomnia (male Wistar rats; 10 mg/kg): did not produce any
reduction in body temperature (male Wistar rats; 10 mg/kg): no disproportional reduction
reduction in locomotor activity (LMA) (male Wistar rats; 10 mg/kg): no disproportional reduction
Cumulative NREM sleep time increase, adjusted for baseline and relative to vehicle (male Wistar rats; 10 mg/kg PO, CT-18): 53 min
absolute average sleep bout (male Wistar rats; 10 mg/kg PO, CT-18): 9 min
average sleep bout length increase, adjusted for baseline and relative to vehicle (male Wistar rats; 10 mg/kg PO, CT-18): 5.3 min
peak NREM sleep time (male Wistar rats; 10 mg/kg PO, CT-18): 64 % per hour
body temperature (male Wistar rats; 30 mg/kg): unacceptable drop in body temperature
reduction in LMA (male Wistar rats; 30 mg/kg): no disproportional reduction
Cumulative NREM sleep time increase, adjusted for baseline and relative to vehicle (male Wistar rats; 30 mg/kg PO, CT-18): 62 min
absolute average sleep bout (male Wistar rats; 30 mg/kg PO, CT-18): 9 min
absolute longest sleep bout post-treatment (male Wistar rats; 30 mg/kg PO, CT-18): 25 min
average sleep bout length increase, adjusted for baseline and relative to vehicle (male Wistar rats; 30 mg/kg PO, CT-18): 5.6 min
peak NREM sleep time (male Wistar rats; 30 mg/kg PO, CT-18): 72 % per hour
REM inhibition (male Wistar rats; 30 mg/kg, CT-18): did not produce any appreciable REM inhibition
% Inhibition, H1 (H1 histamine receptor; concentration 1.0E−5): 95.79%
% Specific Binding, H1 (H1 histamine receptor; concentration 1.0E−5): 3.21%
% Inhibition, H1 (H1 histamine receptor; concentration 1.0E−6): 93.75%
% Specific Binding, H1 (H1 histamine receptor; concentration 1.0E−6): 6.25%
% Inhibition, H1 (H1 histamine receptor; concentration 1.0E−7): 60.82%
% Specific Binding, H1 (H1 histamine receptor; concentration 1.0E−7): 39.18%
% Inhibition, H1 (H1 histamine receptor; concentration 1.0E−8): 8.60%
% Specific Binding, H1 (H1 histamine receptor; concentration 1.0E−8): 91.40%
% Inhibition, H1 (H1 histamine receptor; concentration 1.0E−9): 2.99%
% Specific Binding, H1 (H1 histamine receptor; concentration 1.0E−9): 97.01%
% Specific Binding, H1 (H1 histamine receptor; concentration 3.0E−6): 6.74%
% Inhibition, H1 (H1 histamine receptor; concentration 3.0E−7): 81.03%
% Specific Binding, H1 (H1 histamine receptor; concentration 3.0E−7): 18.97%
% Inhibition, H1 (H1 histamine receptor; concentration 3.0E−8): 30.37%
% Specific Binding, H1 (H1 histamine receptor; concentration 3.0E−8): 69.53%
% Inhibition, M3 (M3 muscarinic receptor; concentration 1.0E−5): 4.27%
% Specific Binding, M3 (M3 muscarinic receptor; concentration 1.0E−5): 95.73%
% Inhibition, M3 (M3 muscarinic receptor; concentration 1.0E−6): 0.79%
% Specific Binding, M3 (M3 muscarinic receptor; concentration 1.0E−6): 99.21%
% Inhibition, M3 (M3 muscarinic receptor; concentration 1.0E−7): 5.85%
% Specific Binding, M3 (M3 muscarinic receptor; concentration 1.0E−7): 93.15%
% Inhibition, M3 (M3 muscarinic receptor; concentration 1.0E−8): −8.34%
% Specific Binding, M3 (M3 muscarinic receptor; concentration 1.0E−8): 108.34%
% Inhibition, M3 (M3 muscarinic receptor; concentration 1.0E−9): −0.65%
% Specific Binding, M3 (M3 muscarinic receptor; concentration 1.0E−9): 100.65%
% Specific Binding, M3 (M3 muscarinic receptor; concentration 3.0E−6): 94.59%
% Specific Binding, M3 (M3 muscarinic receptor; concentration 3.0E−7): 94.45%
% Inhibition, M3 (M3 muscarinic receptor; concentration 3.0E−8): 6.99%
% Specific Binding, M3 (M3 muscarinic receptor; concentration 3.0E−8): 93.01%
